“Also recorded” adds a separate entry of the source. Read-outs that look alike come from different tables or passages of the source.
Key:
[1] = molecular target: Mtb FecB (Rv3044) (Mycobacterium tuberculosis, UniProt O53291); test: biochemical; assay type: binding
[2] = molecular target: Mtb FecB2 (Rv0265c) (Mycobacterium tuberculosis, UniProt L7N6B2); assay type: binding; conditions: FecB2-His (with His tag); 100 nM protein, 50 mM Tris-HCl pH 7.4, 150 mM NaCl, emission 335 nm
Mtb FecB2 (Rv0265c), sequence (L7N6B2 39-330 limits assumed): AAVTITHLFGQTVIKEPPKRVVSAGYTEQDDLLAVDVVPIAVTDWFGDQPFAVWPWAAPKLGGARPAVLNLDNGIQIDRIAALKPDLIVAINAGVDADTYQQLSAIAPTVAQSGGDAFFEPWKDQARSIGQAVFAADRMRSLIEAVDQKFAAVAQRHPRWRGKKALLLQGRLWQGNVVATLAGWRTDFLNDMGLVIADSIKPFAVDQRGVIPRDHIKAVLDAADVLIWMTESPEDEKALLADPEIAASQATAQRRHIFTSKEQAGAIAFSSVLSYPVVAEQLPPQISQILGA

Mtb FecB (Rv3044), sequence (O53291 entry or part of it): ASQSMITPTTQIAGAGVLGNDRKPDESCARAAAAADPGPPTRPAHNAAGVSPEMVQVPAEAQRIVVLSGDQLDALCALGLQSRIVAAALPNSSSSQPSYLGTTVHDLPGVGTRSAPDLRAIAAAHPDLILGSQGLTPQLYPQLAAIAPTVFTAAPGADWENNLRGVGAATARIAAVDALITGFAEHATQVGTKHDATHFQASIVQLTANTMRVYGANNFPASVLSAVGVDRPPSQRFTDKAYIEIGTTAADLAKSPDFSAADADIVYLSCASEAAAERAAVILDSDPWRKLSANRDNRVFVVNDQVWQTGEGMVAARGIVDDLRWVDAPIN

Molecule: ferric-pyoverdines
- Fold weaker affinity to FecB compared to Fe-cMB [1]: at least 40 fold
- Kd [1]: > 45 µM

Molecule: ferric-carboxymycobactin [Fe-cMB]
- Kd [1]: 0.55 µM
- Kd ([1]; FecB without His tag (tagless), 100 nM protein, 50 mM Tris-HCl pH 7.4, 150 mM NaCl, emission 335 nm): 0.68 µM
- Kd ([1]; FecB-His (with His tag, native), 100 nM protein, 50 mM Tris-HCl pH 7.4, 150 mM NaCl, emission 335 nm): 0.63 ± 0.12 µM
- Kd [2]: could not be determined; also recorded: too weak to be determined

Molecule: O=C(N[C@H]1COC(=O)[C@@H](NC(=O)c2cccc(O)c2O)COC(=O)[C@@H](NC(=O)c2cccc(O)c2O)COC1=O)c1cccc(O)c1O [ferric-enterobactin]
- Fold weaker affinity to FecB compared to Fe-cMB [1]: at least 40 fold
- Kd [1]: 26.1 µM

Molecule: ferric-mycobactin J [Fe-MBJ]
- Fold weaker affinity to FecB compared to Fe-cMB [1]: ~20 fold
- Kd [1]: ~11 µM
- Kd ([1]; listed as Fe-mycobactin J): 11.3 ± 0.1 µM

Molecule: carboxymycobactin [apo-cMB]
- Fold weaker affinity to FecB compared to Fe-cMB [1]: ~4 fold
- Kd [1]: 2.9 ± 0.1 µM

From PMC10553834, “Differentiating the roles of Mycobacterium tuberculosis substrate binding proteins, FecB and FecB2, in iron uptake” (PLOS Pathogens, 2023)
